The target of the assay is T1, soybean lipoxygenase LOX-1 (Glycine max, UniProt P08170).
T1 sequence (P08170 1-839): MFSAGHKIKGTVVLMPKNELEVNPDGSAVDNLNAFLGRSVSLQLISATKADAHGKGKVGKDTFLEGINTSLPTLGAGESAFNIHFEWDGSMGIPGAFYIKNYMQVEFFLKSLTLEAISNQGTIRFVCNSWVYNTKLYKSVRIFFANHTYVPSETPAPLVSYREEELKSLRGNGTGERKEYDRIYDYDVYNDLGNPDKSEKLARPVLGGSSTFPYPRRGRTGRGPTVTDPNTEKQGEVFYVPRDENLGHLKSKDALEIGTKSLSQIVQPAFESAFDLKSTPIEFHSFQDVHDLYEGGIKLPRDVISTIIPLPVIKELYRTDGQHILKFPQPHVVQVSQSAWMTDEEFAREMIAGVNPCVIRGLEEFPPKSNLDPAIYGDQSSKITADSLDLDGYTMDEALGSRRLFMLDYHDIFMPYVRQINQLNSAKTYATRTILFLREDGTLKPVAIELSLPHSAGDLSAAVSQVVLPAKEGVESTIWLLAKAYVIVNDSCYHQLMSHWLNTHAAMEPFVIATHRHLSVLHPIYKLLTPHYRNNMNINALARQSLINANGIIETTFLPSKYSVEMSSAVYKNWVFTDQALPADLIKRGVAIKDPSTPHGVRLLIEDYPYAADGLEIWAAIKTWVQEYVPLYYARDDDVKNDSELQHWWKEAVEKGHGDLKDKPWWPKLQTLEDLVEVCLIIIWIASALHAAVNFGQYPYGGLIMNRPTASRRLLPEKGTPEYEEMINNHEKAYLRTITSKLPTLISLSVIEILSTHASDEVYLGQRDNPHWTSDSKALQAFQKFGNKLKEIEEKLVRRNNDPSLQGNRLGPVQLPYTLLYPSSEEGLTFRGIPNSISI
In kind it is biochemical.

A word on the IC50: it is the concentration that inhibits the measured activity by half. Read a high IC50 as weaker potency in that assay.

The compound `NNC(=S)N/N=C/c1ccccc1` [DKI5, (E)-N′-benzylidenehydrazinecarbothiohydrazide] returned an IC50 of 22.5 µM.

Compound `SC1=NC(c2ccccc2)=CC(c2ccccc2)N1` (centres unmarked) [KKII5, 4,6-diphenyl-3,4-dihydropyrimidine-2(1H)-thione] registered an IC50 of 19 µM.

The record behind these values is article PMC10077549 (ACS Omega, 2023).
